Source: publication PMC8298633, “Cannabis constituents interact at the drug efflux pump BCRP to markedly increase plasma cannabidiolic acid concentrations” (Scientific Reports, 2021)
Several values for one entry are separate records, joined by “and”; a condition that tells them apart may be missing. Equal entries are not always repeated.

Columns and labels:
Bcrp1 = details: mouse Bcrp1; cited from earlier work
wildtype MDCK cells = assay: Bidirectional transwell transport assay, wildtype MDCK cell monolayers; details: wildtype MDCK cells, 10 µM cannabinoid; for P (A > B): apical to basolateral
Protocol: (§1) We first aimed to determine whether the cannabinoids found in the full-spectrum cannabis extract were substrates of P-glycoprotein and BCRP by using MDCK cells expressing human P-glycoprotein or BCRP in vitro. Transwell assays were conducted to assess bidirectional transport of the cannabinoids detected in plasma following administration of the full-spectrum cannabis extract (CBD, CBDA, CBDVA, CBGA, Δ^9-THC and Δ^9-THCA), including the respective neutral compounds (CBDV and CBG) across wildtype, BCRP and P-glycoprotein MDCK cell monolayers. […] BCRP and P-glycoprotein preferentially transport substrates in the B > A direction.
(§2) Media in the donor chamber was then replaced with that containing 10 µM of an individual cannabinoid in the presence of either vehicle or inhibitor and returned to 37 °C. Aliquots (25 or 50 µL) were removed from the accepter chamber at 60, 120, 180 and 240 min.
(§3) Cannabinoids were analyzed as described above.

[1] = as above; details: dog, MDCK
Protocol: as §1, §2, §3

BCRP [2] = molecular target: T1, BCRP (Homo sapiens, UniProt Q9UNQ0); assay: Inhibition of BCRP-mediated transport of CBDA by cannabinoids (transwell, BCRP MDCK cells)
T1 sequence (Q9UNQ0 1-655): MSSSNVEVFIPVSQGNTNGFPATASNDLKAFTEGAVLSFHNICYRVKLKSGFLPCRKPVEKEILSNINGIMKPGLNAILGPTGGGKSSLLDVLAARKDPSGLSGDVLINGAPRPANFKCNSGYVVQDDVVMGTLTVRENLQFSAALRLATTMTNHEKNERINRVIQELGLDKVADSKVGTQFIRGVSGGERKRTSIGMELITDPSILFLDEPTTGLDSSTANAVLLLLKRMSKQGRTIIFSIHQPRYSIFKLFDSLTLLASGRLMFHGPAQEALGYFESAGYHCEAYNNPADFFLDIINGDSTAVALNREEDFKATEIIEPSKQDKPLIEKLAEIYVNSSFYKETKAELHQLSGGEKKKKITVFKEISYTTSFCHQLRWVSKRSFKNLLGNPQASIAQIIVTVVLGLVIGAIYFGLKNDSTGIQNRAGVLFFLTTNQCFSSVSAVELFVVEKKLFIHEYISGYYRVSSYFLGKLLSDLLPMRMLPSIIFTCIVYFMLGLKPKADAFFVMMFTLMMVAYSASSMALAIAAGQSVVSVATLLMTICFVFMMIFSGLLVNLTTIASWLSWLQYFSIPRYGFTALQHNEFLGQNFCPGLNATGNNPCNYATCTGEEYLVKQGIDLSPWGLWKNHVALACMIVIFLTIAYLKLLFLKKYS
Protocol: Cannabinoids were tested at 10 µM. […] Data are expressed as means ± SEM, with n = 4 per time point. […] Schematic created using BioRender.com.
as §3

[3] = Pharmacokinetic study: plasma cannabinoids after single oral gavage of full-spectrum cannabis extract or individual cannabinoid; details: for half-life: t1/2, mouse plasma; for Detection in plasma following oral administration of the full-spectrum extract: single oral dose of extract
Protocol: Drugs were administered by oral gavage in a volume of 5 mL/kg. Wildtype male and female mice (postnatal day 21–28, P21-28) received a single oral gavage of either the full-spectrum cannabis extract or an individual cannabinoid. Cannabinoid doses within the full-spectrum extract or as an individual cannabinoid were as follows in mg/kg: CBDA and Δ^9-THCA, 50; CBD, 25; Δ^9-THC, 15; CBC, 9; CBDVA and CBGA, 7; CBN, 2.5; CBG, 1.5; CBDV and Δ^9-THCV, < 1 (Fig. 1a). At selected time points (15–240 min), mice were anesthetized with isoflurane and whole blood was collected by cardiac puncture. Plasma was isolated by centrifugation (9000 g for 10 min, 4 °C) and stored at − 80 °C until assayed.
Concentrations of cannabinoids in plasma samples were quantified as described previously, [24], [58]. […] The organic layer was isolated by centrifugation (4000 g for 10 min) and evaporated to dryness with N2. Samples were reconstituted in acetonitrile and 0.1% formic acid in water (1:3.3, v/v) for supported-liquid extraction (SLE) with methyl tert-butyl ether (MTBE) using Biotage Isolute SLE+ columns (Uppsala, SWE). […] Quantification of cannabinoids was achieved by comparing samples to standards prepared with known amounts of drug.
Plasma concentrations at each time point were averaged and pharmacokinetic parameters were calculated by noncompartmental analysis. Elimination rate constants were determined by linear regression of the terminal component of the concentration–time curve using GraphPad Prism 8.2 (La Jolla, USA). The log-linear trapezoidal method was used to calculated total drug exposure (area under concentration–time curve) using equations described previously.

BCRP [4] = molecular target: T1, BCRP; assay: Inhibition of BCRP-mediated transport of prazosin (transwell, BCRP MDCK cells); details: for Effect on BCRP-mediated transport of prazosin: 10 µM, compared to vehicle
P-glycoprotein = P-glycoprotein (Homo sapiens, UniProt P08183); assay: Bidirectional transwell substrate assay, MDCK cells expressing P-glycoprotein; details: for P (A > B): apical to basolateral; for P (B > A): basolateral to apical; for P-glycoprotein substrate status: human P-glycoprotein MDCK cells vs wildtype
P-glycoprotein, sequence (P08183 whole entry): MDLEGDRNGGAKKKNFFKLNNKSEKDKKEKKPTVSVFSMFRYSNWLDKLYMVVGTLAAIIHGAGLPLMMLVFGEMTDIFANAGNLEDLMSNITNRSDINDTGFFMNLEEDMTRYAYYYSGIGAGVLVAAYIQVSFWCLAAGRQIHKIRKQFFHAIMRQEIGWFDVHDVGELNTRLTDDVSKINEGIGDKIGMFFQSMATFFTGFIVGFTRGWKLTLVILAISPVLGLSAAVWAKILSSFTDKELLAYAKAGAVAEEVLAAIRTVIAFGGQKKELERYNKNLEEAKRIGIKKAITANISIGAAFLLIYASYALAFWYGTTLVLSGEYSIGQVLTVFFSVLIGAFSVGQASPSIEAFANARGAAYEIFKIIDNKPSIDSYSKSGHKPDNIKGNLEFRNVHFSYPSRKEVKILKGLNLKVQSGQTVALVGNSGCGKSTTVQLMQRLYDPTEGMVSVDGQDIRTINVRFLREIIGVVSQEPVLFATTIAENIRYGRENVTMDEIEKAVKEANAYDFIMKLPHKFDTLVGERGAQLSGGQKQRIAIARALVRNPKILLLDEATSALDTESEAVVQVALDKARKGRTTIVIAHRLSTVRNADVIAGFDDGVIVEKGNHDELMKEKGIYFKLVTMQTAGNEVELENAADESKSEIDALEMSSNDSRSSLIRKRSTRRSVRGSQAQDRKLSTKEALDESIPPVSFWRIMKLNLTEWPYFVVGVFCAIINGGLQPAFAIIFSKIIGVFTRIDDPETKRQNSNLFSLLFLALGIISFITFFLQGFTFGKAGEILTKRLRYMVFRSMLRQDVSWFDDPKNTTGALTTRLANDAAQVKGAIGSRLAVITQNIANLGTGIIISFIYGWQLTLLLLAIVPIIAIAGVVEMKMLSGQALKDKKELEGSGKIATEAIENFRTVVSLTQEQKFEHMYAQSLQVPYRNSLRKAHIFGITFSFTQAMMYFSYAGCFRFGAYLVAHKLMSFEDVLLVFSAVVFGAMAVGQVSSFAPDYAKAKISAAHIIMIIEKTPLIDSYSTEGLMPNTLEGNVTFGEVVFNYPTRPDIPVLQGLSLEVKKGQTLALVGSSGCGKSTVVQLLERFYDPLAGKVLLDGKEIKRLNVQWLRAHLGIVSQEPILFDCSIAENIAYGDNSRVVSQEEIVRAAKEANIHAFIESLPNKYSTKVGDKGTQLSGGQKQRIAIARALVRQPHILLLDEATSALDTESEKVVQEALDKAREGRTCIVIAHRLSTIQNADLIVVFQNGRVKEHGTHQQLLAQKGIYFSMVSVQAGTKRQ
Protocol: as §1, §2, §3

BCRP [5] = molecular target: T1, BCRP; assay: Bidirectional transwell substrate assay, MDCK cells expressing BCRP (with or without elacridar); details: for P (A > B) / P (B > A) / r (transport efflux ratio) / efflux ratio at 240 min, 10 µM: BCRP MDCK cells; for P (A > B): apical to basolateral; for P (B > A): basolateral to apical; for BCRP substrate status: human BCRP MDCK cells vs wildtype, with elacridar control; for efflux ratio at 240 min, 10 µM: human, r (transport efflux ratio)
Protocol: as §1, §2, §3

[6] = set-up: method as in PMID 33155722; details: healthy individuals, oral cannabis decoction and oil containing 3–6 times the amount of CBDA compared to CBD; cited from earlier work
[7] = both, mouse, plasma, po, AUC, mouse plasma, oral, administered as individual cannabinoid, doses mg/kg: CBD 25, CBDA 50, CBDVA 7, THC 15, THCA 50
[8] = both, mouse, plasma, po, AUC, mouse plasma, oral, administered in full-spectrum extract, doses mg/kg: CBD 25, CBDA 50, CBDVA 7, CBGA 7, THC 15, THCA 50
[9] = both, mouse, plasma, po, oral, administered as individual cannabinoid, doses mg/kg: CBD 25, CBDA 50, CBDVA 7, THC 15, THCA 50
[10] = both, mouse, plasma, po, oral, administered in full-spectrum extract, doses mg/kg: CBD 25, CBDA 50, CBDVA 7, CBGA 7, THC 15, THCA 50
[11] = both, mouse, plasma, po, tmax, mouse plasma, oral, administered as individual cannabinoid, doses mg/kg: CBD 25, CBDA 50, CBDVA 7, CBGA 7, THC 15, THCA 50
[12] = both, mouse, plasma, po, tmax, mouse plasma, oral, administered in full-spectrum extract, doses mg/kg: CBD 25, CBDA 50, CBDVA 7, CBGA 7, THC 15, THCA 50
[13] = mouse plasma, oral, equivalent doses
[14] = P-glycoprotein MDCK cells, 10 µM cannabinoid
[15] = 10 µM cannabinoid, substrate threshold 1.5
[16] = with elacridar 10 µM, 10 µM cannabinoid in the presence of 10 µM elacridar
[17] = BCRP MDCK cells, cannabinoids tested at 10 µM
[18] = mouse plasma, oral, administered as individual cannabinoid, doses mg/kg: CBD 25, CBDA 50, CBDVA 7, THC 15, THCA 50
[19] = mouse plasma, oral, administered in full-spectrum extract, doses mg/kg: CBD 25, CBDA 50, CBDVA 7, CBGA 7, THC 15, THCA 50

SMILES	P (A > B) (wildtype MDCK cells)	Papp B→A at 240 min, 10 µM [1]	efflux ratio at 240 min, 10 µM [1]	AUC [3, 7]	AUC [3, 8]	half-life [3, 9]	half-life [3, 10]	tmax [3, 11]	tmax [3, 12]	Total plasma exposure in full-spectrum extract relative to individual compound, fold lower [3, 13]	Detection in plasma following oral administration of the full-spectrum extract ([3]; mouse plasma)	Effect on BCRP-mediated transport of prazosin (BCRP [4])	P (A > B) (P-glycoprotein; [14])	P (B > A) (P-glycoprotein; [14])	P-glycoprotein substrate status (P-glycoprotein)	P (A > B) (BCRP [5]; 10 µM cannabinoid)	P (B > A) (BCRP [5]; 10 µM cannabinoid)	r (transport efflux ratio) (BCRP [5]; [15])	BCRP substrate status (BCRP [5])	efflux ratio at 240 min, 10 µM (BCRP [5]; [16])	also measured
C=C(C)[C@@H]1CCC(C)=C[C@H]1c1c(O)cc(CCCCC)cc1O [CBD, cannabidiol]	41 ± 5 × 10^−5 cm/s	250 ± 30 ×10⁻⁶ cm/s	0.6 ± 0.2	1730 ng·h/mL	717 ng·h/mL	3.62 h	8.07 h	1.5 h	≤ 1 h	2–4 ×	detected	identified as an inhibitor of BCRP	25 ± 7 × 10^−5 cm/s	15 ± 3 × 10^−5 cm/s	not P-glycoprotein substrates	52 ± 8 × 10^−5 cm/s	86 ± 20 × 10^−5 cm/s	1.6 ± 0.3	BCRP substrates	1 ± 0.2	Bcrp1 substrate status (Bcrp1): not a substrate of mouse Bcrp1; Effect on BCRP-mediated transport of CBDA (BCRP [2]; 10 µM, BCRP MDCK cells, compared to vehicle): Neither CBD nor CBDVA affected CBDA transport via BCRP; r (transport efflux ratio) of CBDA in the presence of inhibitor (BCRP [2]; human, 240 min, 10 µM): 5.9 ± 0.1; Cmax ([3]; both, mouse, plasma, po, 25 mg/kg, Cmax, mouse plasma, oral, administered as individual cannabinoid, doses mg/kg: CBD 25, THC 15, THCA 50): 304 ± 28 ng/mL; Cmax ([3]; both, mouse, plasma, po, 25 mg/kg, Cmax, mouse plasma, oral, administered in full-spectrum extract, doses mg/kg: CBD 25, THC 15, THCA 50): 60 ± 6 ng/mL; efflux ratio at 240 min, 10 µM (BCRP [5]; [15]): > 1.5
C=C(C)[C@@H]1CCC(C)=C[C@H]1c1c(O)cc(CCCCC)c(C(=O)O)c1O [CBDA, cannabidiolic acid]	31 ± 8 × 10^−5 cm/s	370 ± 90 ×10⁻⁶ cm/s	1.2 ± 0.3	27300 ng·h/mL	380000 ng·h/mL	3.3 h	5.17 h	1.5 h	≤ 1 h		detected		24 ± 7 × 10^−5 cm/s	38 ± 4 × 10^−5 cm/s	not P-glycoprotein substrates	38 ± 11 × 10^−5 cm/s	162 ± 24 × 10^−5 cm/s		BCRP substrates	0.4 ± 0.4	Cmax ([3]; both, mouse, plasma, po, Cmax, mouse plasma, oral, administered as individual cannabinoid, doses mg/kg: CBDA 50, CBDVA 7, CBGA 7): 6000 ± 1000 ng/mL; Cmax ([3]; both, mouse, plasma, po, Cmax, mouse plasma, oral, administered in full-spectrum extract, doses mg/kg: CBDA 50, CBDVA 7, CBGA 7): 47000 ± 4000 ng/mL; Total plasma exposure (AUC) in full-spectrum extract relative to individual compound, fold higher ([3]; mouse plasma, oral, 50 mg/kg, equivalent doses): ~14 × and 14 ×; r (transport efflux ratio) (P-glycoprotein; P-glycoprotein MDCK cells, 10 µM cannabinoid, substrate threshold 2.5): 1.5 ± 0.3; efflux ratio at 240 min, 10 µM (P-glycoprotein; human, MDCK-MDR1, r (transport efflux ratio), P-glycoprotein MDCK cells, 10 µM cannabinoid, substrate threshold 2.5): < 2.5; Serum CBDA concentrations relative to serum CBD concentrations [6]: 20–30 times
CCCCCc1cc(O)c2c(c1)OC(C)(C)[C@@H]1CCC(C)=C[C@@H]21 [Δ^9-THC, Δ^9-tetrahydrocannabinol, reference compound]	9 ± 3 × 10^−5 cm/s									2–4 ×	detected	not prazosin transport	9 ± 3 × 10^−5 cm/s	4 ± 1 × 10^−5 cm/s	not P-glycoprotein substrates	54 ± 17 × 10^−5 cm/s	74 ± 28 × 10^−5 cm/s	1.4 ± 0.5	weak substrates of BCRP		r (transport efflux ratio) (wildtype MDCK cells): 0.3 ± 0.3; P (B > A) (wildtype MDCK cells; basolateral to apical): 3 ± 1 × 10^−5 cm/s; P (A > B) of CBDA in the presence of inhibitor (BCRP [2]; [17]): 21 ± 3 × 10^−5 cm/s; P (B > A) of CBDA in the presence of inhibitor (BCRP [2]; [17]): 47 ± 4 × 10^−5 cm/s; tmax ([3]; mouse plasma, oral, administered as individual cannabinoid, doses mg/kg: CBD 25, CBDA 50, CBDVA 7, CBGA 7, THC 15, THCA 50): 1.5 h; AUC [3, 18]: 1930 ng·h/mL; t1/2 [3, 18]: 3.5 h; Cmax ([3]; mouse plasma, oral, administered as individual cannabinoid, doses mg/kg: CBD 25, THC 15, THCA 50): 341 ± 40 ng/mL; AUC [3, 19]: 1030 ng·h/mL; t1/2 [3, 19]: 5.5 h; tmax [3, 19]: ≤ 1 h; tmax ([3]; mouse plasma, oral, administered in full-spectrum extract, doses mg/kg: CBD 25, CBDA 50, CBDVA 7, CBGA 7, THC 15, THCA 50, listed as THC): 1 h; Cmax ([3]; mouse plasma, oral, administered in full-spectrum extract, doses mg/kg: CBD 25, THC 15, THCA 50): 127 ± 15 ng/mL; P (A > B) of prazosin in the presence of inhibitor (BCRP [4]; 10 µM inhibitor, 1 µM prazosin): 18 ± 2 × 10^−2 cm/s; P (B > A) of prazosin in the presence of inhibitor (BCRP [4]; 10 µM inhibitor, 1 µM prazosin): 201 ± 8 × 10^−2 cm/s; r (transport efflux ratio) (BCRP [5]; 10 µM cannabinoid in the presence of 10 µM elacridar): 0.7 ± 0.2
